How the values were obtained:
[1] = target: T1, GABA-A receptor; alpha-1/beta-3/gamma-2 (Homo sapiens, UniProt P14867+P18507+P28472); experiment: Positive allosteric modulation of GABA-A alpha1beta3gamma2S receptor (unknown origin) expressed in Xenopus laevis oocytes assessed as increase in GABA-induced chloride current after 15 mins at -70 mV holding potential by two-microelectrode voltage clamp method; format: cell-based
T1 sequence (P14867 whole entry): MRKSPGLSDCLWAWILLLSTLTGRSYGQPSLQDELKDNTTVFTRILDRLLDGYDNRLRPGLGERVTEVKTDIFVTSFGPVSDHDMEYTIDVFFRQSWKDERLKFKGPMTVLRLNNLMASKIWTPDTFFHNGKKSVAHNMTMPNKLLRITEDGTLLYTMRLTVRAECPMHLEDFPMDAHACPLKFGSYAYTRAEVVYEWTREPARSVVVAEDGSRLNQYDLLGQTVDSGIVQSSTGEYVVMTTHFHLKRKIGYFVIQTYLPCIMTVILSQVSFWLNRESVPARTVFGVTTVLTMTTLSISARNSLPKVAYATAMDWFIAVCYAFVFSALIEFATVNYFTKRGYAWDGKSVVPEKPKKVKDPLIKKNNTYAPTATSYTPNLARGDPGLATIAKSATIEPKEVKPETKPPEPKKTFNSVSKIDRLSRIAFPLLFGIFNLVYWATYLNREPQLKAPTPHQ
T1 sequence (P18507 whole entry): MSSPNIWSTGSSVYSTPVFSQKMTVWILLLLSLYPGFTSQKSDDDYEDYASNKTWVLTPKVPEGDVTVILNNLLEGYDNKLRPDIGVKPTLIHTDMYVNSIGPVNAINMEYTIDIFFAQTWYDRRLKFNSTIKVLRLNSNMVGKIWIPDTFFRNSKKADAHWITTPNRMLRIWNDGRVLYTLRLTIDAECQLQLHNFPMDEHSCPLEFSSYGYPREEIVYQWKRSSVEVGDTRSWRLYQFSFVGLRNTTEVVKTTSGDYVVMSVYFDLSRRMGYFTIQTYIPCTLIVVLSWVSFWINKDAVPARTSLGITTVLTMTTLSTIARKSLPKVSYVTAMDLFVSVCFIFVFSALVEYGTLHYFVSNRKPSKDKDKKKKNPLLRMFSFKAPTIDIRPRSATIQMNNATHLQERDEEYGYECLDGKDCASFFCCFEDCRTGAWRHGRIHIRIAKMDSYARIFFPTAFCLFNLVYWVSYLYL
T1 sequence (P28472 whole entry): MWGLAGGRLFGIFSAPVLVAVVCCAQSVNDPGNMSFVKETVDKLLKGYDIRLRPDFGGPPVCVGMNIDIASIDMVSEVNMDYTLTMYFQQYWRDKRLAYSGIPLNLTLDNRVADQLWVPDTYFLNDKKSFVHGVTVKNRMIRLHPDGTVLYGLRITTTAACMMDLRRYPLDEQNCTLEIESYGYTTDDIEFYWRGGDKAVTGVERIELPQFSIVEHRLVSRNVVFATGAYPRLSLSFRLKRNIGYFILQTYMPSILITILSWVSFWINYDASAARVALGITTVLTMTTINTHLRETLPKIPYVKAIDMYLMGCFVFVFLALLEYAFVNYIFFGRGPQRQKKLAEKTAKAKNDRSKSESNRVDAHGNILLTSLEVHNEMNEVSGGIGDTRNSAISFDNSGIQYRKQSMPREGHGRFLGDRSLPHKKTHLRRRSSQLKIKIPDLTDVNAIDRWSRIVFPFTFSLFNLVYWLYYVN

[2] = target: T2, GABA-A receptor; alpha-1/beta-2/gamma-2 (Homo sapiens, UniProt P14867+P18507+P47870); experiment: Positive allosteric modulation of GABA-A alpha1beta2gamma2S receptor (unknown origin) expressed in Xenopus laevis oocytes assessed as increase in GABA-induced chloride current after 15 mins at -70 mV holding potential by two-microelectrode voltage clamp method; format: cell-based
T2 sequence (P14867 whole entry): T1 sequence (P14867 whole entry)
T2 sequence (P47870 whole entry): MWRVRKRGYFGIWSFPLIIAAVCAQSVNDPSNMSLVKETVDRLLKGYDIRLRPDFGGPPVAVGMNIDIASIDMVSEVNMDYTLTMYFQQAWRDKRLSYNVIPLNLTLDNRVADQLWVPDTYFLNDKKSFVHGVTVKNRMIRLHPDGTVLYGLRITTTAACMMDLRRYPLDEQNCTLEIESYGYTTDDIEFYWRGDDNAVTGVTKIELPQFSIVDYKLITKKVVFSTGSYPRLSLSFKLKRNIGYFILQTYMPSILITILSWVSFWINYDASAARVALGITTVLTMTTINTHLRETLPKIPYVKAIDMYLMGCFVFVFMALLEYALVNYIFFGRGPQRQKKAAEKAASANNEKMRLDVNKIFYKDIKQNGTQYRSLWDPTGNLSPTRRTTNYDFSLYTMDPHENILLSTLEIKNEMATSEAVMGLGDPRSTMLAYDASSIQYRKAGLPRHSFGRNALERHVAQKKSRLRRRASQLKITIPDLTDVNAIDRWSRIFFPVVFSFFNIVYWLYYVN
T2 sequence (P18507 whole entry): T1 sequence (P18507 whole entry)

Compound	EC50 [1] [µM]	EC50 [2] [µM]
C/C(C#N)=C\c1ccc(C)cc1Cl	44	
CC(CC#N)c1ccc(Cl)cc1Cl (racemic)	120	
Cl/C(=C\n1cncn1)c1ccc(Cl)cc1Cl [LORECLEZOLE]	11	
C/C(C#N)=C\c1ccc(Cl)cc1Cl	91	
C/C(=C(\C#N)C(N)=O)c1ccc(Cl)cc1Cl	44	40

From ChEMBL document CHEMBL4308853, “Design, Synthesis, and Pharmacological Evaluation of Novel β2/3 Subunit-Selective γ-Aminobutyric Acid Type A (GABAA) Receptor Modulators” (J Med Chem, 2018)
